Counter-ions that a name gives are not always drawn. Like-named read-outs stand apart in the source and are kept apart here.
Experiments:
urokinase (uPA) = molecular target: T1, urokinase (uPA) (Homo sapiens, UniProt P00749); assay: In vitro inhibition of urokinase (Ki according to Dixon, chromogenic substrate); type: biochemical
T1 construct: purchased Calbiochem-Novabiochem GmbH, Bad Soden, Germany
Method: In order to determine the inhibitory activity, 200 μl Tris buffer (0.05 mol/l containing the inhibitor, 0.154 mol/l NaCl, pH 8.0), 25 μl substrate (Pefachrome uPA, Pefachrome PL or Pefabloc TH in H2O; Pentapharm Ltd, Basle, Switzerland) and 50 μl urokinase (Calbiochem-Novabiochem GmbH, Bad Soden, Germany) or another appropriate protease e.g. plasmin, thrombin or FXa are incubated for 10 minutes at 30° C. After ca. 30 minutes and 30 cycles the absorption is determined at 405 nm by means of a microplate reader (Mediators PHL, Aureon Biosystems, Vienna, Austria). The Ki values were determined according to Dixon by linear regression using a computer program.

[1] = Oral bioavailability and plasma kinetics in mice (serum concentration); type: in vivo, Balb/c mice; conditions: mouse; for concentration at 20 min / concentration at 40 min / concentration at 60 min: female, Balb/c, serum, po, read-out: c in the serum 1st analysis; for concentration at 20 min: sample at 20 minutes; for concentration at 40 min: sample at 40 minutes; for concentration at 60 min: sample at 60 minutes; for c in the serum 1st analysis: 10 mg/kg i.v.
[2] = summary table, read-out: Ki uPA

SMILES: N=C(N)Nc1ccc(CNC(=O)CNC(=O)C(CO)NC(=O)Cc2ccc(O)c(O)c2)cc1 (stereo not drawn) [WX-571, 3,4-Dihydroxyphenyl-acetyl-(D)-Ser-Gly-(4-guanidinobenzyl)amide hydrochloride]
- Ki (urokinase (uPA); read-out: Ki uPA): 14700 nM

SMILES: N=C(N)Nc1ccc(NNC(=O)CNC(=O)[C@@H](CO)NS(=O)(=O)Cc2ccccc2)cc1 [WX-600, N-[N′-guanidino-phenyl)-hydrazinocarbonyl-methyl]-3-hydroxy-2-phenyl-methanesulfonylamino-propionamide hydrochloride]
- Ki (urokinase (uPA); read-out: Ki uPA): 2100 nM

SMILES: N=C(N)Nc1ccc(CNC(=O)CNC(=O)C(CO)NC(=O)Nc2cccc(Cl)c2)cc1 (stereo not drawn) [WX-C292, 3-Chlorophenyl-aminocarbonyl-(D)-Ser-Gly-(4-guanidinobenzyl)amide hydrochloride]
- Ki uPA (urokinase (uPA)): no inh. *)

SMILES: CC1(C)C2CCC1(CS(=O)(=O)NC(CO)C(=O)NCC(=O)NCc1ccc(NC(=N)N)cc1)C(=O)C2 (stereo not drawn) [WX-C296, (−)-Camphor-10-sulfonyl-(D)-Ser-Gly-4-guanidinobenzyl)amide hydrochloride]
- Ki (urokinase (uPA); read-out: Ki uPA): 450 nM

SMILES: CC1(C)C2CCC1(CS(=O)(=O)NC(CO)C(=O)NCC(=O)NCc1ccc(NC(=N)N)cc1)C(=O)C2 (stereo not drawn) [WX-C298, (+)-Camphor-10-sulfonyl-(D)-Ser-Gly-(4-guanidinobenzyl)amide hydrochloride]
- Ki (urokinase (uPA); read-out: Ki uPA): 160 nM
- Ki (urokinase (uPA); [2]): 160 nM
- concentration at 20 min ([1]; 30 mg/kg, 30 mg/kg oral): 200 ng/mL
- concentration at 40 min ([1]; 30 mg/kg, 30 mg/kg oral): 400 ng/mL
- concentration at 60 min ([1]; 30 mg/kg, 30 mg/kg oral): 100 ng/mL
- concentration at 20 min ([1]; 300 mg/kg, 300 mg/kg oral): 17000 ng/mL
- concentration at 40 min ([1]; 300 mg/kg, 300 mg/kg oral): 10700 ng/mL
- concentration at 60 min ([1]; 300 mg/kg, 300 mg/kg oral): 7000 ng/mL
- c in the serum 1st analysis ([1]; time of sample collection 0): 66.2 µg/mL
- c in the serum 1st analysis ([1]; time of sample collection 10): 18.3 µg/mL
- c in the serum 1st analysis ([1]; time of sample collection 30): 2.1 µg/mL

SMILES: CCCCS(=O)(=O)NC(CO)C(=O)NCC(=O)NCc1ccc(NC(=N)N)cc1 (stereo not drawn) [WX-C300, n-Butyl-sulfonyl-(D)-Ser-Gly-(4-guanidinobenzyl)amide hydrochloride]
- Ki (urokinase (uPA); list of test substances of Example 17, read-out: Ki human uPA): 270 nM
- Ki (urokinase (uPA); read-out: Ki uPA): 270 nM
- Ki (urokinase (uPA); [2]): 270 nM
- concentration at 20 min ([1]; 30 mg/kg, 30 mg/kg oral): 200 ng/mL
- concentration at 40 min ([1]; 30 mg/kg, 30 mg/kg oral): 200 ng/mL
- concentration at 60 min ([1]; 30 mg/kg, 30 mg/kg oral): 200 ng/mL
- concentration at 20 min ([1]; 300 mg/kg, 300 mg/kg oral): 1500 ng/mL
- concentration at 40 min ([1]; 300 mg/kg, 300 mg/kg oral): 4600 ng/mL
- concentration at 60 min ([1]; 300 mg/kg, 300 mg/kg oral): 600 ng/mL
- c in the serum 1st analysis ([1]; time of sample collection 0): 94.4 µg/mL
- c in the serum 1st analysis ([1]; time of sample collection 10): 11.0 µg/mL
- c in the serum 1st analysis ([1]; time of sample collection 30): 1.3 µg/mL

SMILES: CCCCCCCCS(=O)(=O)NC(CO)C(=O)NCC(=O)NCc1ccc(NC(=N)N)cc1 (stereo not drawn) [WX-C302, n-Octyl-sulfonyl-(D)-Ser-Gly-(4-guanidinobenzyl)amide hydrochloride]
- Ki (urokinase (uPA); read-out: Ki uPA): 500 nM

SMILES: N=C(N)Nc1ccc(CNC(=O)CNC(=O)C(CO)NC(=O)Nc2ccccc2Cl)cc1 (stereo not drawn) [WX-C304, 2-Chlorophenyl-aminocarbonyl-(D)-Ser-Gly-(4-guanidinobenzyl)amide hydrochloride]
- Ki uPA (urokinase (uPA)): no inh. *)

SMILES: COc1ccc(NC(=O)NC(CO)C(=O)NCC(=O)NCc2ccc(NC(=N)N)cc2)cc1 (stereo not drawn) [WX-C306, 4-Methoxyphenyl-aminocarbonyl-(D)-Ser-Gly-(4-guanidinobenzyl)amide hydrochloride]
- Ki (urokinase (uPA); read-out: Ki uPA): 4100 nM

SMILES: COc1cc(NC(=O)NC(CO)C(=O)NCC(=O)NCc2ccc(NC(=N)N)cc2)cc(OC)c1OC (stereo not drawn) [WX-C308, 3,4,5-Tri-methoxyphenyl-aminocarbonyl-(D)-Ser-Gly-(4-guanidinobenzyl)amide hydrochloride]
- Ki (urokinase (uPA); read-out: Ki uPA): > 20000 nM

SMILES: N=C(N)Nc1ccc(CNC(=O)CNC(=O)C(CO)NC(=O)Nc2ccc(Oc3ccccc3)cc2)cc1 (stereo not drawn) [WX-C310, 4-Phenoxyphenyl-aminocarbonyl-(D)-Ser-Gly-(4-guanidinobenzyl)amide hydrochloride]
- Ki (urokinase (uPA); read-out: Ki uPA): 2000 nM

SMILES: CCOC(=O)c1cccc(NC(=O)NC(CO)C(=O)NCC(=O)NCc2ccc(NC(=N)N)cc2)c1 (stereo not drawn) [WX-C312, 3-Ethoxycarbonylphenyl-aminocarbonyl-(D)-Ser-Gly-(4-guanidinobenzyl)amide hydrochloride]
- Ki (urokinase (uPA); read-out: Ki uPA): 1400 nM

SMILES: CC(=O)c1cccc(NC(=O)NC(CO)C(=O)NCC(=O)NCc2ccc(NC(=N)N)cc2)c1 (stereo not drawn) [WX-C314, 3-Acetylphenyl-aminocarbonyl-(D)-Ser-Gly-(4-guanidinobenzyl)amide hydrochloride]
- Ki uPA (urokinase (uPA)): no inh. *)

SMILES: N=C(N)Nc1ccc(CNC(=O)CNC(=O)C(CO)NC(=O)NC23CC4CC(CC(C4)C2)C3)cc1 (stereo not drawn) [WX-C320, 1-Adamantyl-aminocarbonyl-(D)-Ser-Gly-(4-guanidinobenzyl)amide hydrochloride]
- Ki (urokinase (uPA); read-out: Ki uPA): > 20000 nM

SMILES: N=C(N)Nc1ccc(CNC(=O)CNC(=O)C(CO)NC(=O)Nc2ccccc2Br)cc1 (stereo not drawn) [WX-C322, 2-Bromophenyl-aminocarbonyl-(D)-Ser-Gly-(4-guanidinobenzyl)amide hydrochloride]
- Ki (urokinase (uPA); read-out: Ki uPA): > 20000 nM

SMILES: N=C(N)Nc1ccc(CNC(=O)CNC(=O)C(CO)NC(=O)Nc2ccc3c(c2)OCCO3)cc1 (stereo not drawn) [WX-C326, 2,3-Dihydro-1,4-benzodioxin-6-yl-aminocarbonyl-(D)-Ser-Gly-(4-guanidinobenzyl)amide hydrochloride]
- Ki (urokinase (uPA); read-out: Ki uPA): > 20000 nM

SMILES: N=C(N)Nc1ccc(CNC(=O)CNC(=O)C(CO)NC(=O)Nc2cccc3ccccc23)cc1 (stereo not drawn) [WX-C328, 1-Naphthyl-aminocarbonyl-(D)-Ser-Gly-(4-guanidinobenzyl)amide hydrochloride]
- Ki (urokinase (uPA); read-out: Ki uPA): > 20000 nM

SMILES: CC(=O)c1ccc(NC(=O)NC(CO)C(=O)NCC(=O)NCc2ccc(NC(=N)N)cc2)cc1 (stereo not drawn) [WX-C330, 4-Acetylphenyl-aminocarbonyl-(D)-Ser-Gly-(4-guanidinobenzyl)amide hydrochloride]
- Ki (urokinase (uPA); read-out: Ki uPA): > 20000 nM

SMILES: N=C(N)Nc1ccc(CNC(=O)CNC(=O)C(CO)NC(=O)Nc2ccc3c(c2)OCO3)cc1 (stereo not drawn) [WX-C332, 3,4-Methylenedioxyphenyl-aminocarbonyl-(D)-Ser-Gly-(4-guanidinobenzyl)amide hydrochloride]
- Ki (urokinase (uPA); read-out: Ki uPA): > 20000 nM

SMILES: N=C(N)Nc1ccc(CNC(=O)CNC(=O)C(CO)NC(=O)Nc2cccc(Cl)c2Cl)cc1 (stereo not drawn) [WX-C334, 2,3-Dichlorophenyl-aminocarbonyl-(D)-Ser-Gly-(4-guanidinobenzyl)amide hydrochloride]
- Ki (urokinase (uPA); read-out: Ki uPA): > 20000 nM

SMILES: CCOC(=O)c1ccc(NC(=O)NC(CO)C(=O)NCC(=O)NCc2ccc(NC(=N)N)cc2)cc1 (stereo not drawn) [WX-C336, 4-Ethyloxycarbonylphenyl-aminocarbonyl-(D)-Ser-Gly-(4-guanidinobenzyl)amide hydrochloride]
- Ki (urokinase (uPA); read-out: Ki uPA): 13100 nM

SMILES: N=C(N)Nc1ccc(CNC(=O)CNC(=O)C(CO)NC(=O)Nc2ccc(Br)cc2Br)cc1 (stereo not drawn) [WX-C338, 2,4-Dibromophenyl-aminocarbonyl-(D)-Ser-Gly-(4-guanidinobenzyl)amide hydrochloride]
- Ki (urokinase (uPA); read-out: Ki uPA): > 20000 nM

SMILES: N=C(N)Nc1ccc(CNC(=O)CNC(=O)C(CO)NC(=O)Nc2ccc([N+](=O)[O-])cc2)cc1 (stereo not drawn) [WX-C342, 4-Nitrophenyl-aminocarbonyl-(D)-Ser-Gly-(4-guanidinobenzyl)amide hydrochloride]
- Ki (urokinase (uPA); read-out: Ki uPA): 4900 nM

SMILES: N=C(N)Nc1ccc(CNC(=O)CNC(=O)C(CNC(=O)OCc2ccccc2)NS(=O)(=O)Cc2ccccc2)cc1 (stereo not shown) [WX-M5, benzylsulfonyl-(D)-Dap(Z)-Gly-(4-guanidinobenzyl)amide hydrochloride]
- Ki (urokinase (uPA); read-out: Ki uPA): 500 nM

SMILES: N=C(N)Nc1ccc(CNC(=O)CNC(=O)C(CN)NS(=O)(=O)Cc2ccccc2)cc1 (stereo not drawn) [WX-M6, Benzylsulfonyl-(D)-Dap-Gly-(4-guanidinobenzyl)amide bis-hydrochloride]
- Ki (urokinase (uPA); read-out: Ki uPA): 150 nM

From patent US20040266766A1, “Selective urokinase inhibitors” (Wilex AG, priority 2001, published 2004)
